This is an account of results in patent publication US20250122174A1 (Shenzhen Yuanli Shenwan Innovative Medicine Co., Ltd., priority 2022, published 2025).

pIC50: −log10 of the molar value.

The target of this assay is HPK1 (Homo sapiens (Human), UniProt Q92918). The experiment in a line: HPK1 Inhibition Assay (ADP-Glo kinase assay). The format is biochemical. The following applies: ATP 10 μM. Put shortly: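 ADP-Glo luminescence read-out after 1 h room-temperature kinase reaction with 10 μM ATP and 0.1 μg/ml MBP. Recombinant human HPK1 at 7.5 ng/μl; buffer 40 mM Tris pH 7.5, 20 mM MgCl2. Compounds serially diluted 5-fold over 10 points from 10 mM DMSO stock.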
HPK1, sequence (Q92918 1-346 limits assumed): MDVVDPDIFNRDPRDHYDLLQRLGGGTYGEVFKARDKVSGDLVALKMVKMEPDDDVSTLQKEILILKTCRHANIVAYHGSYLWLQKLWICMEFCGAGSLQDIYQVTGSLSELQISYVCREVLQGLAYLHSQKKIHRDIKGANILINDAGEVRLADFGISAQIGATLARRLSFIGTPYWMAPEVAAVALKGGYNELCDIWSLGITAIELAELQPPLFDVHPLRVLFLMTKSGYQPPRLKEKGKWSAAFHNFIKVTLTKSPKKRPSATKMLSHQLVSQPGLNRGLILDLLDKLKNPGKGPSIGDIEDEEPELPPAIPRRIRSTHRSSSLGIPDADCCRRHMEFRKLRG
A general note: ADP-Glo turns the ADP formed in a reaction into a luminescent signal.
Regarding `C[C@@H]1CN(c2c(NC(=O)c3ccc(=O)n(-c4c(F)cccc4F)n3)ccc3nn(C(C)(C)C(C)(C)C)cc23)C[C@@H]1N` [Example 245, N-(4-((3R,4R)-3-amino-4-methylpyrrolidin-1-yl)-2-(2,3,3-trimethylbutan-2-yl)-2H-indazol-5-yl)-1-(2,6-difluorophenyl)-6-oxo-1,6-dihydropyridazine-3-carboxamide], the pIC50 was > 7.00.

Turning to `CC(C)(C)C(C)(C)n1cc2c(N3C[C@H](N)C4(CC4)C3)c(NC(=O)c3ccc(=O)n(-c4c(F)cccc4F)n3)ccc2n1` [Example 246, (R)-N-(4-(7-amino-5-azaspiro[2.4]heptan-5-yl)-2-(2,3,3-trimethylbutan-2-yl)-2H-indazol-5-yl)-1-(2,6-difluorophenyl)-6-oxo-1,6-dihydropyridazine-3-carboxamide], the pIC50 is > 7.00.

As to `CC(C)C(C)(C)n1cc2c(N3C[C@@H](C)[C@@H](N)C3)c(NC(=O)c3ccc(=O)n(-c4c(F)cccc4F)n3)ccc2n1` [Example 247, N-(4-((3R,4R)-3-amino-4-methylpyrrolidin-1-yl)-2-(2,3-dimethylbutan-2-yl)-2H-indazol-5-yl)-1-(2,6-difluorophenyl)-6-oxo-1,6-dihydropyridazine-3-carboxamide], the pIC50 is > 7.00.

Regarding `CC(C)C(C)(C)n1cc2c(N3C[C@H](N)C4(CC4)C3)c(NC(=O)c3ccc(=O)n(-c4c(F)cccc4F)n3)ccc2n1` [Example 248, (R)-N-(4-(7-amino-5-azaspiro[2.4]heptan-5-yl)-2-(2,3-dimethylbutan-2-yl)-2H-indazol-5-yl)-1-(2,6-difluorophenyl)-6-oxo-1,6-dihydropyridazine-3-carboxamide], the pIC50 was > 7.00.

Consider `N[C@H]1CN(c2c(NC(=O)c3ccc(=O)n(-c4c(F)cccc4F)n3)ccc3c2cnn3[C@H]2CCOC2)CC12CC2` [Example 249, 1-(2,6-difluorophenyl)-N-{4-[(7R)-7-amino-5-azaspiro[2.4]heptan-5-yl]-1-[(3S)-tetrahydro-3-furyl]indazol-5-yl}-6-oxo-1,2-diazine-3-carboxamide], for which the pIC50 is > 7.00.

For `N[C@H]1CN(c2c(NC(=O)c3ccc(=O)n(-c4c(F)cccc4F)n3)ccc3c2cnn3[C@@H]2CCOC2)CC12CC2` [Example 250, N-(4-((R)-7-amino-5-azaspiro[2.4]heptan-5-yl)-1-((R)-tetrahydrofuran-3-yl)-1H-indazol-5-yl)-1-(2,6-difluorophenyl)-6-oxo-1,6-dihydropyridazine-3-carboxamide], the pIC50 was > 7.00.

With `N[C@H]1CN(c2c(NC(=O)c3ccc(=O)n(-c4c(F)cccc4F)n3)ccc3c2cnn3C2CCOCC2)CC12CC2` [Example 251, (R)-N-(4-(7-amino-5-azaspiro[2.4]heptan-5-yl)-1-(tetrahydro-2H-pyran-4-yl)-1H-indazol-5-yl)-1-(2,6-difluorophenyl)-6-oxo-1,6-dihydropyridazine-3-carboxamide], the pIC50 was > 7.00.

`C[C@@H]1CN(c2c(NC(=O)c3ccc(=O)n(-c4c(F)cccc4F)n3)ccc3c2cnn3[C@@H]2CCCOC2)C[C@@H]1N` [Example 252, N-(4-((3R,4R)-3-amino-4-methylpyrrolidin-1-yl)-1-((R)-tetrahydro-2H-pyran-3-yl)-1H-indazol-5-yl)-1-(2,6-difluorophenyl)-6-oxo-1,6-dihydropyridazine-3-carboxamide]: the pIC50 was > 7.00.

Regarding `C[C@@H]1CN(c2c(NC(=O)c3ccc(=O)n(-c4c(F)cccc4F)n3)ccc3c2cnn3[C@H]2CCCOC2)C[C@@H]1N` [Example 253, N-(4-((3R,4R)-3-amino-4-methylpyrrolidin-1-yl)-1-((S)-tetrahydro-2H-pyran-3-yl)-1H-indazol-5-yl)-1-(2,6-difluorophenyl)-6-oxo-1,6-dihydropyridazine-3-carboxamide], the pIC50 is > 7.00.

Usually pIC50 stands for the negative decadic logarithm of the IC50, by convention in mol/L. The low end stands for a high IC50, the high end for a low IC50.
